≈ marks a conversion by molar mass, not a printed value. Read-outs that look alike come from different tables or passages of the source.
Key:
Experiment in all cases: MIC broth microdilution
Assay type in all cases: cell-based
[1] = test system: Burkholderia cepacia ATCC 25416
[2] = test system: Acinetobacter sp. ATCC 49137
Experimental: (§1) Briefly, the MIC was determined by microbroth dilution assay in a 96 well plate. 4-5 colonies of each bacterium tested were added to 5 ml of MHB, placed in a 35° C. shaker until the OD 600 nm reached 0.08-0.10. The inoculum was diluted 1:100 and 50 microliters were added to each well which contained 50 microliters of serial two fold dilutions of Lento, vancomycin or ciprofloxacin. Each concentration of antibiotic or Lento was tested in duplicate. The plate was placed at 35° C. overnight. MICs were determined after 24 hours incubation and defined by the well containing the lowest amount of antibiotic with no visible growth.

[3] = test system: Corynebacterium jeikeium ATCC 43734; settings: Corynebacterium jeikeium, ATCC43734, 24 h
Experimental: as §1

[4] = test system: Enterococcus faecalis (VRE) ATCC 51299
Experimental: as §1

[5] = test system: Enterococcus faecium ATCC 51559; settings: ATCC51559; Enterococcus faecium ATCC 51559, Gram +; MHB, 35° C., 24 hours; read-out: MIC
Experimental: as §1

[6] = test system: Eschericia coli ATCC 10536
Experimental: as §1

[7] = test system: Eschericia coli ATCC 25922
Experimental: as §1

[8] = test system: Eschericia coli ATCC 35218; settings: 24 h
Experimental: as §1

[9] = test system: Micrococcus luteus ATCC 9341
Experimental: as §1

[10] = test system: Salmonella typhimurium ATCC 13311; settings: Salmonella enterica
Experimental: as §1

[11] = test system: Shigella dysenteriae ATCC 11835; settings: Shigella dysenteriae, ATCC11835, 24 h
Experimental: as §1

[12] = test system: Staphylococcus aureus (GISA) ATCC 700699
Experimental: as §1

[13] = test system: Staphylococcus aureus ATCC 27734
Experimental: as §1

[14] = test system: Staphylococcus aureus ATCC 29737; settings: Staphylococcus aureus, ATCC29737, 24 h
Experimental: as §1

[15] = test system: Staphylococcus aureus subsp. aureus (MRSA & GISA) ATCC 700789
Experimental: as §1

[16] = test system: Staphylococcus aureus subsp. aureus (MRSA) ATCC 700788
Experimental: as §1

[17] = test system: Staphylococcus epidermidis ATCC 12228; settings: Staphylococcus epidermidis, ATCC12228, 24 h
Experimental: as §1

[18] = test system: Staphylococus aureus (GISA) ATCC 700787
Experimental: as §1

[19] = test system: Streptococcus pneumoniae (PSRSP) ATCC 700671
Experimental: as §1

[20] = test system: Streptococcus pneumoniae (TCRSP) ATCC 700902
Experimental: as §1

[21] = test system: Streptococcus pneumoniae ATCC 49619
Experimental: as §1

[22] = test system: Streptococcus pneumoniae ATCC 700676
Experimental: as §1

[23] = test system: Bacillus cereus ATCC 4342; settings: Bacillus cereus, ATCC4342, 24 h
Experimental: as §1

[24] = test system: Corynebacterium jeikeium ATCC 43216; settings: Corynebacterium jeikeium, ATCC43216, 24 h
Experimental: as §1

[25] = test system: Klebsiella pneumoniae ATCC 10031; settings: ATCC10031, 24 h
Experimental: as §1

[26] = test system: Pseudomonas aeruginosa ATCC 27853; settings: ATCC27853, 24 h
Experimental: as §1

[27] = test system: Staphylococcus aureus (MRSA) ATCC 33591; settings: 24 h
Experimental: as §1

[28] = test system: Staphylococcus aureus ATCC 29213; settings: Staphylococcus aureus, ATCC29213, 24 h
Experimental: as §1

[29] = test system: Stenotrophomas maltophilia ATCC 13637; settings: 24 h
Experimental: as §1

## O=C(O)c1cn(C2CC2)c2cc(N3CCNCC3)c(F)cc2c1=O [Ciprofloxacin]
[1]; ATCC25416, Burkholderia cepacia ATCC 25416, Gram −, MHB, 35° C., 24 hours, read-out: MIC
  MIC: 0.25 µg/mL (≈ 0.754 µM)
[2]; ATCC49137, Acinetobacter sp. ATCC 49137, Gram −, MHB, 35° C., 24 hours, read-out: MIC
  MIC: 0.0625 µg/mL (≈ 0.189 µM)
[3]
  MIC: 0.0625 µg/mL (≈ 0.189 µM)
[4]; Enterococcus faecalis (VRE) ATCC 51299, Gram +, MHB, 35° C., 24 hours, read-out: MIC
  MIC: 0.5 µg/mL (≈ 1.51 µM)
[5]
  MIC: > 64 µg/mL
[6]; Eschericia coli ATCC 10536, Gram −, MHB, 35° C., 24 hours, read-out: MIC
  MIC: 0.0625 µg/mL (≈ 0.189 µM)
[7]; Eschericia coli ATCC 25922, Gram −, MHB, 35° C., 24 hours, read-out: MIC
  MIC: 0.0625 µg/mL (≈ 0.189 µM)
[8]
  MIC: 0.0625 µg/mL (≈ 0.189 µM)
[9]; ATCC9341, Micrococcus luteus ATCC 9341, Gram +, MHB, 35° C., 24 hours, read-out: MIC
  MIC: 1 µg/mL (≈ 3.02 µM)
[10]; Salmonella typhimurium ATCC 13311, Gram −, MHB, 35° C., 24 hours, read-out: MIC
  MIC: 0.0625 µg/mL (≈ 0.189 µM)
[11]
  MIC: 0.0625 µg/mL (≈ 0.189 µM)
[12]; ATCC700699, Staphylococcus aureus (GISA) ATCC 700699, Gram +, MHB, 35° C., 24 hours, read-out: MIC
  MIC: 16 µg/mL (≈ 48.3 µM)
[13]; ATCC27734, Staphylococcus aureus ATCC 27734, Gram +, MHB, 35° C., 24 hours, read-out: MIC
  MIC: 8 µg/mL (≈ 24.1 µM)
[14]
  MIC: 0.0625 to 0.25 µg/mL (≈ 0.189 to 0.754 µM)
[15]; Staphylococcus aureus subsp. aureus (MRSA & GISA) ATCC 700789, Gram +, MHB, 35° C., 24 hours, read-out: MIC
  MIC: 16 µg/mL (≈ 48.3 µM)
[16]; Staphylococcus aureus subsp. aureus (MRSA) ATCC 700788, Gram +, MHB, 35° C., 24 hours, read-out: MIC
  MIC: 8 µg/mL (≈ 24.1 µM)
[17]
  MIC: 0.0625 µg/mL (≈ 0.189 µM)
[18]; Staphylococus aureus (GISA) ATCC 700787, Gram +, MHB, 35° C., 24 hours, read-out: MIC
  MIC: 16 µg/mL (≈ 48.3 µM)
[19]; ATCC700671, Streptococcus pneumoniae (PSRSP) ATCC 700671, Gram +, MHB, 35° C., 24 hours, read-out: MIC
  MIC: 1 to 2 µg/mL (≈ 3.02 to 6.04 µM)
[20]; ATCC700902, Streptococcus pneumoniae (TCRSP) ATCC 700902, Gram +, MHB, 35° C., 24 hours, read-out: MIC
  MIC: 0.5 to 1 µg/mL (≈ 1.51 to 3.02 µM)
[21]; ATCC49619, Streptococcus pneumoniae ATCC 49619, Gram +, MHB, 35° C., 24 hours, read-out: MIC
  MIC: 0.5 µg/mL (≈ 1.51 µM)
[22]; ATCC700676, Streptococcus pneumoniae ATCC 700676, Gram +, MHB, 35° C., 24 hours, read-out: MIC
  MIC: 1 µg/mL (≈ 3.02 µM)

## CN[C@H](CC(C)C)C(=O)N[C@H]1C(=O)N[C@@H](CC(N)=O)C(=O)N[C@H]2C(=O)N[C@H]3C(=O)N[C@H](C(=O)N[C@H](C(=O)O)c4cc(O)cc(O)c4-c4cc3ccc4O)[C@H](O)c3ccc(c(Cl)c3)Oc3cc2cc(c3O[C@@H]2O[C@H](CO)[C@@H](O)[C@H](O)[C@H]2O[C@H]2C[C@](C)(N)[C@H](O)[C@H](C)O2)Oc2ccc(cc2Cl)[C@H]1O [Vancomycin, vancomycin]
[1]; Burkholderia cepacia, ATCC25416, 24 h
  MIC: > 64 µg/mL
[2]; Acinetobacter, ATCC49137, 24 h
  MIC: > 64 µg/mL
[23]
  MIC: 1 µg/mL (≈ 0.69 µM)
[24]
  MIC: 0.25 µg/mL (≈ 0.173 µM)
[3]
  MIC: 0.25 µg/mL (≈ 0.173 µM)
[4]; Enterococcus faecalis, 24 h
  MIC: 2 µg/mL (≈ 1.38 µM)
[6]; 24 h
  MIC: > 64 µg/mL
[7]; 24 h
  MIC: > 64 µg/mL
[8]
  MIC: > 64 µg/mL
[25]
  MIC: > 64 µg/mL
[9]; Micrococcus luteus, ATCC9341, 24 h
  MIC: 0.5 µg/mL (≈ 0.345 µM)
[26]
  MIC: > 64 µg/mL
[10]; 24 h
  MIC: > 64 µg/mL
[11]
  MIC: > 64 µg/mL
[12]; Staphylococcus aureus, ATCC700699, 24 h
  MIC: 8 µg/mL (≈ 5.52 µM)
[27]
  MIC: 1 µg/mL (≈ 0.69 µM)
[13]; Staphylococcus aureus, ATCC27734, 24 h
  MIC: 1 µg/mL (≈ 0.69 µM)
[28]
  MIC: 0.5 µg/mL (≈ 0.345 µM)
[14]
  MIC: 0.5 µg/mL (≈ 0.345 µM)
[15]; Staphylococcus aureus, 24 h
  MIC: 2 µg/mL (≈ 1.38 µM)
[16]; Staphylococcus aureus, 24 h
  MIC: 2 µg/mL (≈ 1.38 µM)
[17]
  MIC: 1 µg/mL (≈ 0.69 µM)
[18]; 24 h
  MIC: 8 µg/mL (≈ 5.52 µM)
[29]
  MIC: 32 µg/mL (≈ 22.1 µM)
[19]; Streptococcus pneumoniae, ATCC700671, 24 h
  MIC: 0.5 µg/mL (≈ 0.345 µM)
[20]; Streptococcus pneumoniae, ATCC700902, 24 h
  MIC: 0.25 µg/mL (≈ 0.173 µM)
[21]; Streptococcus pneumoniae, ATCC49619, 24 h
  MIC: 0.5 to 1 µg/mL (≈ 0.345 to 0.69 µM)
[22]; Streptococcus pneumoniae, ATCC700676, 24 h
  MIC: 0.25 µg/mL (≈ 0.173 µM)

From patent publication US8092810B2, “Use of polypeptides having antimicrobial activity” (Novozymes A/S, priority 2006, dated 2012)
